Tested on: human TRPM8
Test: TRPM8 Protocol-FLIPR Assay (intracellular Ca2+)
Assay type: cell-based
Settings: for TRPM8 Time Course Activity 50 sec % of WS5 / TRPM8 Time Course Activity 3 min % of WS5 / TRPM8 Time Course Activity 5 min % of WS5 / TRPM8 Time Course Activity 10 min % of WS5: vs 30 uM WS-5; for TRPM8 Time Course Activity 3 min: fluorescence at 3 min; for TRPM8 Time Course Activity 5 min: fluorescence at 5 min; for TRPM8 Time Course Activity 10 min: fluorescence at 10 min
Experimental: To determine whether TRPM8 is activated, the intracellular calcium ion (Ca^2+) level was measured from transfected cells with the TRPM8 receptor sequence (SEQ ID NO: 3). HEK-293 (human embryonic kidney) cells stably transfected with human TRPM8 were grown in 15 ml growth medium (high glucose DMEM (Dulbecco's Modification of Eagle's Medium) supplemented with 10% FBS (fetal bovine serum), 100 ug/ml penicillin/streptomycin, 5 μg/ml blasticindin, and 100 μg/ml zeocin) in a 75 cm^2 flask for 3 days at 37° C. in a mammalian cell culture incubator set at 5% CO2 Cells were detached with addition of 2 ml of trypsin-EDTA buffer (GIBCO® 25200, Invitrogen, Grand Island, N.Y.) for about 2-3 min. Trypsin was inactivated by addition of 8 ml growth medium. Cells were transferred to a 50 ml tube and centrifuged at 850 rpm for 3 minutes to remove medium. After centrifugation, a pellet of cells was formed in the bottom of the tube separating them from the supernatant solution. The supernatant was discarded and the cell pellet was suspended in 1 ml of fresh growth medium to which 5 μl (12.5 μg) of Fluo-4 AM (Molecular Probes, Inc., Eugene, Oreg.) calcium indicator was added and incubated for 30 min with gentle shaking. Fluo-4 AM is a fluorescent dye used for quantifying cellular Ca^2+ concentrations in the 100 nM to 1 microM range. At the end of 30 minutes, 45 ml of assay buffer (1× HBSS (Hank's Balanced Salt Solution), 20 mM HEPES (4-(2-Hydroxyethyl)-1-piperazineethanesulfonic acid)) was added to wash cells and the resulting mixture was then centrifuged at 850 rpm for 3 minutes to remove excess buffer and Fluo-4 AM calcium indicator.
The pelleted cells were re-suspended in 10 ml assay buffer and 90 μl aliquots (˜50,000 cells) per well delivered to a 96-well assay plate containing 10 μl of test compounds (1 mM in assay buffer, […]) or buffer control and incubated at room temperature for 30 minutes. After 30 minutes, a plate was placed into a fluorometric imaging plate reader (FLIPR384 from Molecular Devices, Sunnyvale, Calif.) and basal fluorescence recorded (excitation wave length 488 nm and emission wave length 510 nm). Then 20 μl of […] of TRPM8 agonist WS5 coolant in the assay buffer was added and fluorescence recorded. For determining the direct effect of test compounds on TRPM8, fluorescence was measured immediately after addition of each compound (TABLES 2 and 3). Additional discussion of the FLIPR method can be found in Smart et al., Characterization using FLIPR of human vanilloid VR1 receptor pharmacology, European Journal of Pharmacology 417, 51-58 (2001) and Liu et al., Development and validation of a platelet calcium flux assay using a fluorescent imaging plate reader, Analytical Biochemistry 357, 216-224 (2006).
TRPM8 activation was determined by measuring intracellular calcium ion (Ca^2+) level from transfected cells with the TRPM8 receptor gene, as described in EXAMPLE 1, the results of which are shown in TABLES 4 and 5.

CC(C)[C@@H]1CC[C@@H](C)C[C@H]1C(=O)NCC(NC(=O)[C@@H](C)N)c1ccccc1 (single isomer, unassigned) [Compound 28 fraction 1]
TRPM8 Time Course Activity 50 sec % of WS5 (dose 6.1 nM): 8.8% | TRPM8 Time Course Activity 3 min % of WS5 (dose 6.1 nM): 36.5% | TRPM8 Time Course Activity 5 min % of WS5 (dose 6.1 nM): 46.7% | TRPM8 Time Course Activity 10 min % of WS5 (dose 6.1 nM): 56.1% | TRPM8 Time Course Activity 3 min (dose 6.1 nM): 3452.0 | TRPM8 Time Course Activity 5 min (dose 6.1 nM): 4426.0 | TRPM8 Time Course Activity 10 min (dose 6.1 nM): 5375.0 | TRPM8 Time Course Activity 50 sec % of WS5 (dose 12.2 nM): 30.0% | TRPM8 Time Course Activity 3 min % of WS5 (dose 12.2 nM): 93.0% | TRPM8 Time Course Activity 5 min % of WS5 (dose 12.2 nM): 103.8% | TRPM8 Time Course Activity 10 min % of WS5 (dose 12.2 nM): 115.5% | TRPM8 Time Course Activity 3 min (dose 12.2 nM): 8783.0 | TRPM8 Time Course Activity 5 min (dose 12.2 nM): 9830.0 | TRPM8 Time Course Activity 10 min (dose 12.2 nM): 11065.0 | TRPM8 Time Course Activity 50 sec % of WS5 (dose 24.4 nM): 19.2% | TRPM8 Time Course Activity 3 min % of WS5 (dose 24.4 nM): 67.8% | TRPM8 Time Course Activity 5 min % of WS5 (dose 24.4 nM): 80.2% | TRPM8 Time Course Activity 10 min % of WS5 (dose 24.4 nM): 92.7% | TRPM8 Time Course Activity 3 min (dose 24.4 nM): 6405.0 | TRPM8 Time Course Activity 5 min (dose 24.4 nM): 7593.0 | TRPM8 Time Course Activity 10 min (dose 24.4 nM): 8879.0 | TRPM8 Time Course Activity 50 sec % of WS5 (dose 48.8 nM): 29.0% | TRPM8 Time Course Activity 3 min % of WS5 (dose 48.8 nM): 84.8% | TRPM8 Time Course Activity 5 min % of WS5 (dose 48.8 nM): 94.9% | TRPM8 Time Course Activity 10 min % of WS5 (dose 48.8 nM): 106.8% | TRPM8 Time Course Activity 3 min (dose 48.8 nM): 8017.0 | TRPM8 Time Course Activity 5 min (dose 48.8 nM): 8983.0 | TRPM8 Time Course Activity 10 min (dose 48.8 nM): 10224.0 | TRPM8 Time Course Activity 50 sec % of WS5 (dose 97.6 nM): 39.4% | TRPM8 Time Course Activity 3 min % of WS5 (dose 97.6 nM): 103.1% | TRPM8 Time Course Activity 5 min % of WS5 (dose 97.6 nM): 113.1% | TRPM8 Time Course Activity 10 min % of WS5 (dose 97.6 nM): 125.4% | TRPM8 Time Course Activity 3 min (dose 97.6 nM): 9744.0 | TRPM8 Time Course Activity 5 min (dose 97.6 nM): 10711.0 | TRPM8 Time Course Activity 10 min (dose 97.6 nM): 12011.0 | TRPM8 Time Course Activity 50 sec % of WS5 (dose 195 nM): 53.9% | TRPM8 Time Course Activity 3 min % of WS5 (dose 195 nM): 116.8% | TRPM8 Time Course Activity 5 min % of WS5 (dose 195 nM): 124.9% | TRPM8 Time Course Activity 10 min % of WS5 (dose 195 nM): 136.2% | TRPM8 Time Course Activity 3 min (dose 195 nM): 11037.0 | TRPM8 Time Course Activity 5 min (dose 195 nM): 11824.0 | TRPM8 Time Course Activity 10 min (dose 195 nM): 13046.0 | TRPM8 Time Course Activity 3 min % of WS5 (dose 390 nM): 120.4% | TRPM8 Time Course Activity 5 min % of WS5 (dose 390 nM): 126.4% | TRPM8 Time Course Activity 10 min % of WS5 (dose 390 nM): 137.0% | TRPM8 Time Course Activity 3 min (dose 390 nM): 11373.0 | TRPM8 Time Course Activity 5 min (dose 390 nM): 11968.0 | TRPM8 Time Course Activity 10 min (dose 390 nM): 13121.0 | TRPM8 Time Course Activity 3 min % of WS5 (dose 781 nM): 128.9% | TRPM8 Time Course Activity 5 min % of WS5 (dose 781 nM): 133.3% | TRPM8 Time Course Activity 10 min % of WS5 (dose 781 nM): 142.7% | TRPM8 Time Course Activity 3 min (dose 781 nM): 12182.0 | TRPM8 Time Course Activity 5 min (dose 781 nM): 12618.0 | TRPM8 Time Course Activity 10 min (dose 781 nM): 13661.0 | TRPM8 Time Course Activity 3 min % of WS5 (dose 1.563 uM): 128.4% | TRPM8 Time Course Activity 5 min % of WS5 (dose 1.563 uM): 132.0% | TRPM8 Time Course Activity 10 min % of WS5 (dose 1.563 uM): 140.4% | TRPM8 Time Course Activity 3 min (dose 1.563 uM): 12135.0 | TRPM8 Time Course Activity 5 min (dose 1.563 uM): 12499.0 | TRPM8 Time Course Activity 10 min (dose 1.563 uM): 13440.0 | TRPM8 Time Course Activity 3 min % of WS5 (dose 3.125 uM): 133.4% | TRPM8 Time Course Activity 5 min % of WS5 (dose 3.125 uM): 136.7% | TRPM8 Time Course Activity 10 min % of WS5 (dose 3.125 uM): 144.6% | TRPM8 Time Course Activity 3 min (dose 3.125 uM): 12602.0 | TRPM8 Time Course Activity 5 min (dose 3.125 uM): 12939.0 | TRPM8 Time Course Activity 10 min (dose 3.125 uM): 13850.0 | TRPM8 Time Course Activity 3 min % of WS5 (dose 6.25 uM): 135.2% | TRPM8 Time Course Activity 5 min % of WS5 (dose 6.25 uM): 138.3% | TRPM8 Time Course Activity 10 min % of WS5 (dose 6.25 uM): 147.3% | TRPM8 Time Course Activity 3 min (dose 6.25 uM): 12775.0 | TRPM8 Time Course Activity 5 min (dose 6.25 uM): 13098.0 | TRPM8 Time Course Activity 10 min (dose 6.25 uM): 14102.0 | TRPM8 Time Course Activity 3 min % of WS5 (dose 12.5 uM): 133.3% | TRPM8 Time Course Activity 5 min % of WS5 (dose 12.5 uM): 137.3% | TRPM8 Time Course Activity 10 min % of WS5 (dose 12.5 uM): 145.6% | TRPM8 Time Course Activity 3 min (dose 12.5 uM): 12591.0 | TRPM8 Time Course Activity 5 min (dose 12.5 uM): 12997.0 | TRPM8 Time Course Activity 10 min (dose 12.5 uM): 13947.0 | TRPM8 Time Course Activity 3 min % of WS5 (dose 25 uM): 137.8% | TRPM8 Time Course Activity 5 min % of WS5 (dose 25 uM): 141.0% | TRPM8 Time Course Activity 10 min % of WS5 (dose 25 uM): 149.8% | TRPM8 Time Course Activity 3 min (dose 25 uM): 13020.0 | TRPM8 Time Course Activity 5 min (dose 25 uM): 13354.0 | TRPM8 Time Course Activity 10 min (dose 25 uM): 14341.0 | TRPM8 Time Course Activity 3 min % of WS5 (dose 50 uM): 130.1% | TRPM8 Time Course Activity 5 min % of WS5 (dose 50 uM): 133.7% | TRPM8 Time Course Activity 10 min % of WS5 (dose 50 uM): 137.5% | TRPM8 Time Course Activity 3 min (dose 50 uM): 12295.0 | TRPM8 Time Course Activity 5 min (dose 50 uM): 12654.0 | TRPM8 Time Course Activity 10 min (dose 50 uM): 13169.0 | TRPM8 Time Course Activity 3 min % of WS5 (dose 100 uM): 132.5% | TRPM8 Time Course Activity 5 min % of WS5 (dose 100 uM): 135.7% | TRPM8 Time Course Activity 10 min % of WS5 (dose 100 uM): 137.7% | TRPM8 Time Course Activity 3 min (dose 100 uM): 12520.0 | TRPM8 Time Course Activity 5 min (dose 100 uM): 12844.0 | TRPM8 Time Course Activity 10 min (dose 100 uM): 13187.0

From patent US9974761B2, “Medications for deposition on biological surfaces” (The Procter & Gamble Company, priority 2014, dated 2018)
